PubChem BioAssay (NCI)
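Values below derive from 48-hour exposures of cells grown in 96-well plates, with endpoints linearly interpolated between the two concentrations bracketing the appropriate inhibition level. Abbreviation: GI50, concentration required for 50% inhibition of growth. TGI is the concentration that stops growth completely.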

Assays:
Assay in all cases: growth of human tumour cells (NCI), 48 h
UO-31 renal = test system: UO-31 renal
MDA-MB-435 = test system: MDA-MB-435
LOX IMVI melanoma = test system: LOX IMVI melanoma
786-0 renal = test system: 786-0 renal
A549 NSCLC = test system: A549 NSCLC
NCI-H226 lung = test system: NCI-H226 lung
OVCAR-5 ovarian = test system: OVCAR-5 ovarian
OVCAR-8 ovarian = test system: OVCAR-8 ovarian
CAKI-1 renal = test system: CAKI-1 renal
SNB-75 CNS = test system: SNB-75 CNS
MOLT-4 leukemia = test system: MOLT-4 leukemia
SK-MEL-28 melanoma = test system: SK-MEL-28 melanoma
SR leukemia = test system: SR leukemia
HL-60(TB) leukemia = test system: HL-60(TB) leukemia
HOP-62 NSCLC = test system: HOP-62 NSCLC
SN12C renal = test system: SN12C renal
UACC-257 melanoma = test system: UACC-257 melanoma
COLO 205 colon = test system: COLO 205 colon
ACHN renal = test system: ACHN renal
IGROV1 ovarian = test system: IGROV1 ovarian
T-47D breast = test system: T-47D breast
TK-10 renal = test system: TK-10 renal
SW-620 colon = test system: SW-620 colon
MALME-3M melanoma = test system: MALME-3M melanoma
NCI-H522 lung = test system: NCI-H522 lung
KM12 colon = test system: KM12 colon
RXF 393 renal = test system: RXF 393 renal
MDA-MB-231 breast = test system: MDA-MB-231 breast
HS 578T breast = test system: HS 578T breast
SF-539 CNS = test system: SF-539 CNS
NCI-H23 lung = test system: NCI-H23 lung
M14 melanoma = test system: M14 melanoma
DU-145 prostate = test system: DU-145 prostate
SF-295 CNS = test system: SF-295 CNS
NCI-H460 lung = test system: NCI-H460 lung
UACC-62 melanoma = test system: UACC-62 melanoma
EKVX NSCLC = test system: EKVX NSCLC
OVCAR-3 ovarian = test system: OVCAR-3 ovarian
NCI/ADR-RES ovarian = test system: NCI/ADR-RES ovarian
U251 CNS = test system: U251 CNS
CCRF-CEM leukemia = test system: CCRF-CEM leukemia
SK-MEL-2 melanoma = test system: SK-MEL-2 melanoma
OVCAR-4 ovarian = test system: OVCAR-4 ovarian
K-562 leukemia = test system: K-562 leukemia
HCT-15 colon = test system: HCT-15 colon
SNB-19 CNS = test system: SNB-19 CNS
PC-3 prostate = test system: PC-3 prostate
MCF7 breast = test system: MCF7 breast
SK-OV-3 ovarian = test system: SK-OV-3 ovarian
SK-MEL-5 melanoma = test system: SK-MEL-5 melanoma
SF-268 CNS = test system: SF-268 CNS
HCC-2998 colon = test system: HCC-2998 colon
HT29 colon = test system: HT29 colon
RPMI-8226 leukemia = test system: RPMI-8226 leukemia
HOP-92 NSCLC = test system: HOP-92 NSCLC
A498 renal = test system: A498 renal
BT-549 breast = test system: BT-549 breast

## Cc1ccc(/C(Cl)=C/C=C(C#N)C#N)cc1
UO-31 renal
  TGI: > 100 µM
MDA-MB-435
  TGI: 6.94 µM
LOX IMVI melanoma
  TGI: 3.82 µM
786-0 renal
  TGI: 3.77 µM
A549 NSCLC
  TGI: 56 µM
NCI-H226 lung
  TGI: 17.2 µM
OVCAR-5 ovarian
  TGI: 7.48 µM
OVCAR-8 ovarian
  TGI: 8.67 µM
CAKI-1 renal
  TGI: 14.4 µM
SNB-75 CNS
  TGI: 37.6 µM
MOLT-4 leukemia
  TGI: > 100 µM
SK-MEL-28 melanoma
  TGI: 5.12 µM
SR leukemia
  TGI: 7.47 µM
HL-60(TB) leukemia
  TGI: 36.9 µM
HOP-62 NSCLC
  TGI: 3.88 µM
SN12C renal
  TGI: 17.4 µM
UACC-257 melanoma
  TGI: 6.31 µM
COLO 205 colon
  TGI: 12.1 µM
ACHN renal
  TGI: 5.29 µM
IGROV1 ovarian
  TGI: 16.2 µM
T-47D breast
  TGI: > 100 µM
TK-10 renal
  TGI: 13.2 µM
SW-620 colon
  TGI: 3.71 µM
MALME-3M melanoma
  TGI: 16.1 µM
NCI-H522 lung
  TGI: 5.17 µM
KM12 colon
  TGI: 21 µM
RXF 393 renal
  TGI: 7.66 µM
MDA-MB-231 breast
  TGI: 6.33 µM
HS 578T breast
  TGI: 5.58 µM
SF-539 CNS
  TGI: 6.37 µM
NCI-H23 lung
  TGI: 3.36 µM
M14 melanoma
  TGI: 6.37 µM
DU-145 prostate
  TGI: 23.9 µM
SF-295 CNS
  TGI: 26.9 µM
NCI-H460 lung
  TGI: > 100 µM
UACC-62 melanoma
  TGI: 15.7 µM
EKVX NSCLC
  TGI: 27.5 µM
OVCAR-3 ovarian
  TGI: 3.91 µM
NCI/ADR-RES ovarian
  TGI: 4.48 µM
U251 CNS
  TGI: 18.4 µM
CCRF-CEM leukemia
  TGI: > 100 µM
SK-MEL-2 melanoma
  TGI: > 100 µM
OVCAR-4 ovarian
  TGI: 8.74 µM
K-562 leukemia
  TGI: 19.4 µM
HCT-15 colon
  TGI: 4.79 µM
SNB-19 CNS
  TGI: 24 µM
PC-3 prostate
  TGI: > 100 µM
MCF7 breast
  TGI: > 100 µM
SK-OV-3 ovarian
  TGI: 26.1 µM
SK-MEL-5 melanoma
  TGI: 4.01 µM
SF-268 CNS
  TGI: 21.3 µM

## COc1ccc2c(c1)C(=O)c1c-2n(CCCn2ccnc2)c(=O)c2cc([N+](=O)[O-])ccc12
UO-31 renal
  GI50: < 0.01 µM
  TGI: 0.38 µM
LOX IMVI melanoma
  GI50: < 0.01 µM
  TGI: 0.0351 µM
HCC-2998 colon
  GI50: < 0.0194 µM
  TGI: 0.267 µM
786-0 renal
  GI50: < 0.01 µM
A549 NSCLC
  GI50: < 0.01 µM
HT29 colon
  GI50: < 0.01 µM
  TGI: > 100 µM
NCI-H226 lung
  GI50: < 0.01 µM
  TGI: 0.584 µM
OVCAR-5 ovarian
  GI50: < 0.0156 µM
RPMI-8226 leukemia
  GI50: 0.0653 µM
  TGI: 0.515 µM
OVCAR-8 ovarian
  GI50: < 0.01 µM
  TGI: > 45.7 µM
CAKI-1 renal
  GI50: < 0.01 µM
  TGI: 0.366 µM
SNB-75 CNS
  GI50: < 0.0138 µM
  TGI: 0.41 µM
MOLT-4 leukemia
  GI50: < 0.01 µM
SK-MEL-28 melanoma
  TGI: > 100 µM
SR leukemia
  GI50: < 0.01 µM
HL-60(TB) leukemia
  GI50: < 0.01 µM
  TGI: 16.1 µM
HOP-62 NSCLC
  GI50: < 0.01 µM
  TGI: 0.0119 µM
SN12C renal
  GI50: < 0.01 µM
  TGI: > 100 µM
UACC-257 melanoma
  GI50: 0.115 µM
COLO 205 colon
  GI50: 0.0548 µM
  TGI: > 42.8 µM
IGROV1 ovarian
  GI50: < 0.01 µM
  TGI: 25.2 µM
T-47D breast
  GI50: < 0.01 µM
TK-10 renal
  GI50: 0.14 µM
  TGI: > 95.8 µM
SW-620 colon
  GI50: < 0.0111 µM
  TGI: > 39.9 µM
MALME-3M melanoma
  GI50: < 0.0197 µM
  TGI: 10.8 µM
NCI-H522 lung
  GI50: < 0.0134 µM
  TGI: 3.99 µM
KM12 colon
  GI50: < 0.0229 µM
  TGI: 8.69 µM
RXF 393 renal
  GI50: < 0.0107 µM
MDA-MB-231 breast
  GI50: 2.59 µM
  TGI: > 100 µM
HS 578T breast
  GI50: 2.1 µM
  TGI: > 29 µM
SF-539 CNS
  GI50: < 0.01 µM
  TGI: 0.0101 µM
NCI-H23 lung
  GI50: < 0.01 µM
  TGI: < 0.01 µM
M14 melanoma
  GI50: < 0.01 µM
  TGI: < 0.01 µM
DU-145 prostate
  GI50: < 0.01 µM
  TGI: < 0.0294 µM
SF-295 CNS
  GI50: < 0.01 µM
NCI-H460 lung
  GI50: < 0.01 µM
  TGI: 0.241 µM
HOP-92 NSCLC
  GI50: < 0.0397 µM
UACC-62 melanoma
  GI50: < 0.01 µM
  TGI: 0.075 µM
EKVX NSCLC
  GI50: 0.0646 µM
  TGI: > 50.9 µM
OVCAR-3 ovarian
  GI50: 0.0254 µM
  TGI: 4.41 µM
NCI/ADR-RES ovarian
  GI50: < 0.01 µM
  TGI: 0.192 µM
U251 CNS
  GI50: < 0.01 µM
  TGI: 0.166 µM
SK-MEL-2 melanoma
  GI50: 0.245 µM
OVCAR-4 ovarian
  TGI: > 100 µM
K-562 leukemia
  GI50: < 0.01 µM
  TGI: > 100 µM
HCT-15 colon
  GI50: < 0.0329 µM
  TGI: > 100 µM
SNB-19 CNS
  GI50: < 0.01 µM
  TGI: > 100 µM
PC-3 prostate
  GI50: 0.0168 µM
  TGI: > 100 µM
MCF7 breast
  GI50: < 0.01 µM
  TGI: > 100 µM
SK-OV-3 ovarian
  GI50: < 0.01 µM
  TGI: 1.88 µM
SK-MEL-5 melanoma
  GI50: < 0.01 µM
  TGI: < 0.01 µM
SF-268 CNS
  GI50: < 0.01 µM
  TGI: > 75.5 µM
A498 renal
  GI50: < 0.01 µM
  TGI: 0.184 µM
BT-549 breast
  GI50: < 0.0134 µM
  TGI: 0.744 µM
